Values quoted from earlier work in patent US12667644B2, “Iodine-infused ultra high molecular weight polyethylene” (Biomet Manufacturing, LLC, priority 2019, dated 2026).

System: microbes

povidone-iodine
minimum concentration required to achieve antimicrobial activity: about 2 ppm
